Experimental data taken from PubChem BioAssay (NCI).
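Method: 48-hour compound exposure of cells in 96-well plates, five concentrations, linear interpolation of endpoints. At the TGI there is no net growth.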 Residues, ends and D or L forms follow the SMILES beside them. *: point of attachment. Boc = CC(C)(C)OC(=O)*; OBn = c1ccc(CO*)cc1

Key:
Experiment in all cases: DTP human tumour cell line panel, 48 h
A549 NSCLC = tested on: A549 NSCLC
ACHN renal = tested on: ACHN renal
BT-549 breast = tested on: BT-549 breast
COLO 205 colon = tested on: COLO 205 colon
DU-145 prostate = tested on: DU-145 prostate
HCT-15 colon = tested on: HCT-15 colon
LOX IMVI melanoma = tested on: LOX IMVI melanoma
NCI-H460 lung = tested on: NCI-H460 lung
NCI-H522 lung = tested on: NCI-H522 lung
NCI/ADR-RES ovarian = tested on: NCI/ADR-RES ovarian
OVCAR-3 ovarian = tested on: OVCAR-3 ovarian
OVCAR-4 ovarian = tested on: OVCAR-4 ovarian
OVCAR-8 ovarian = tested on: OVCAR-8 ovarian
RXF 393 renal = tested on: RXF 393 renal
SK-MEL-28 melanoma = tested on: SK-MEL-28 melanoma
SNB-19 CNS = tested on: SNB-19 CNS
SW-620 colon = tested on: SW-620 colon
SN12C renal = tested on: SN12C renal
RPMI-8226 leukemia = tested on: RPMI-8226 leukemia
HS 578T breast = tested on: HS 578T breast

| SMILES | TGI (A549 NSCLC) [µM] | TGI (ACHN renal) [µM] | TGI (BT-549 breast) [µM] | TGI (COLO 205 colon) [µM] | TGI (DU-145 prostate) [µM] | TGI (HCT-15 colon) [µM] | TGI (LOX IMVI melanoma) [µM] | TGI (NCI-H460 lung) [µM] | TGI (NCI-H522 lung) [µM] | TGI (NCI/ADR-RES ovarian) [µM] | TGI (OVCAR-3 ovarian) [µM] | TGI (OVCAR-4 ovarian) [µM] | TGI (OVCAR-8 ovarian) [µM] | TGI (RXF 393 renal) [µM] | TGI (SK-MEL-28 melanoma) [µM] | TGI (SNB-19 CNS) [µM] | TGI (SW-620 colon) [µM] | TGI (SN12C renal) [µM] | TGI (RPMI-8226 leukemia) [µM] | TGI (HS 578T breast) [µM] |
| --- | --- | --- | --- | --- | --- | --- | --- | --- | --- | --- | --- | --- | --- | --- | --- | --- | --- | --- | --- | --- |
| O=C(N/N=C/c1ccccc1O)c1ccccc1Nc1ccccc1C(=O)N/N=C/c1ccccc1O | > 100 | > 100 | > 100 | > 100 | > 100 | > 100 | > 100 | > 100 | > 100 | 5.44 | > 100 | > 100 | 11.7 | > 100 | 0.865 | > 100 | > 100 | – | – | – |
| SCc1ccc(CS)s1 | > 100 | – | > 100 | > 100 | > 100 | > 100 | > 100 | > 100 | > 100 | > 100 | > 100 | > 100 | > 100 | – | > 100 | > 100 | > 100 | > 100 | – | – |
| C[C@@H]1C2=CC[C@@]3(C)C(CCC3[C@H](C)[C@H]3C[C@@]4(C)O[C@@](c5cccnc5)(O3)OC4(C)C)[C@@H]2C2OC2[C@@]12CCC(=O)O2 (some centres undefined) | > 100 | > 100 | – | 77.2 | – | > 100 | > 100 | > 100 | > 100 | – | 85.9 | – | > 100 | – | > 100 | > 100 | > 100 | > 100 | > 100 | – |
| NCCCCC(=O)c1cccnc1 | > 100 | – | – | – | – | > 100 | > 100 | > 100 | > 100 | – | > 100 | – | > 100 | – | > 100 | > 100 | > 100 | – | > 100 | – |
| Cc1cc(=O)[nH]c(NNC(C#N)c2c(O)ccc3ccccc23)n1 (centres undefined) | 18.5 | 13 | – | 57 | – | 18.8 | 22.4 | 17.2 | 23.7 | – | 43.1 | 31.1 | 68.2 | 23.6 | 68.3 | – | 29.9 | 38.2 | 46.5 | – |
| CCOC(=O)[C@H]1Nc2ccc([N+](=O)[O-])cc2C2c3ccccc3CC21 (some centres undefined) | 91.2 | 72.3 | – | > 100 | – | 41.5 | 33.2 | 44.7 | 29.3 | – | 23.1 | 49.8 | 56.1 | 18.3 | 31.9 | > 100 | 41.6 | 43.2 | > 100 | – |
| COc1ccc2c(c1)CC1c3c(ccc(OC)c3O)CC2N1C (centres undefined) | > 100 | > 100 | – | 34.8 | – | > 100 | 38.9 | 38.8 | 37.9 | – | > 100 | > 100 | > 81.3 | 43.6 | 43.8 | > 100 | 45.4 | > 100 | 53.2 | – |
| O=S(=O)([O-])[O-].[Cl-].[NH2-].[NH2-].[NH2-].[NH2-].[Ru+3].c1ccncc1 | > 100 | > 100 | – | > 100 | – | > 100 | > 100 | > 100 | > 100 | – | > 100 | > 100 | > 100 | – | > 100 | – | > 100 | > 100 | > 100 | – |
| COc1ccc(/C=C2\Sc3nnc(CNc4ccc(Cl)cc4)n3N=C2c2cc(F)c(Cl)cc2Cl)cc1OC | – | > 100 | – | – | > 100 | > 100 | > 100 | > 100 | > 100 | 52.3 | > 100 | > 100 | > 100 | 74.2 | > 100 | – | 36.9 | – | 42.2 | > 100 |
| NC(=O)N/N=C(/Cc1nc2ccc(C(=O)c3ccccc3)cc2[nH]c1=O)C(=O)Nc1ccc(C(F)(F)F)cc1[N+](=O)[O-] | > 100 | > 100 | – | > 100 | – | > 100 | > 100 | > 100 | 76.3 | – | > 100 | > 100 | > 100 | – | > 100 | > 100 | > 100 | > 100 | > 100 | – |
| CCN(CC)CCCNc1nc(=O)[nH]c(C)c1C(=O)Nc1ccc2c(c1)c1ccccc1n2CC | > 100 | > 100 | – | > 100 | > 100 | > 100 | > 100 | – | > 100 | > 100 | > 100 | > 100 | > 100 | > 100 | > 100 | > 100 | > 100 | > 100 | > 100 | – |
| CC1(S)CC2C(CC1Sc1ccccc1)C2(C)C (centres undefined) | > 100 | > 100 | – | > 100 | – | > 100 | – | > 100 | – | – | > 100 | > 100 | > 100 | – | > 100 | – | – | > 100 | > 100 | – |
| NC(=O)C(=O)C(c1ccccc1)S(=O)(=O)Cc1ccccc1 (centres undefined) | > 100 | > 100 | > 100 | > 100 | > 100 | > 100 | > 100 | > 100 | > 100 | > 100 | > 100 | > 100 | > 100 | > 100 | > 100 | > 100 | > 100 | > 100 | > 100 | – |
| CC1(C)OCC([C@H]2CC23SCCCS3)O1 (some centres undefined) | > 100 | > 100 | – | > 100 | – | > 100 | – | > 100 | > 100 | – | – | > 100 | > 100 | > 100 | > 100 | > 100 | – | > 100 | > 100 | – |
| CC(C)(C)OC/C=C1\C(=O)O[C@H]2C[C@@H](O[Si](C)(C)C(C)(C)C)C[C@@H]12 | > 100 | > 100 | > 100 | > 100 | > 100 | > 100 | > 100 | > 100 | 90.7 | > 100 | > 100 | > 100 | > 100 | > 100 | > 100 | > 100 | > 100 | > 100 | > 100 | – |
| COc1ccc(/C=C/C(=O)CC(=O)/C=C/c2ccc(OC)cc2)cc1 | > 100 | – | – | > 100 | > 100 | > 100 | 25.1 | > 100 | 67 | > 100 | 75.5 | – | 52.7 | 80 | > 100 | > 100 | > 100 | > 100 | > 100 | 99.8 |
| Cc1cnc2c(c1)C(=O)C1=C(OC(C)(C)CC1O)C2=O (centres undefined) | 31.9 | 29 | – | 32.4 | – | 36.2 | 25.8 | 23.9 | 31.4 | – | 23.4 | 25.6 | 35.6 | 29.3 | 31.1 | 31.6 | 28.5 | 29.8 | 60.6 | – |
| CN(C)S(=O)(=O)n1cnc(CO)c1 | > 100 | > 100 | > 100 | > 100 | – | > 100 | > 100 | > 100 | > 100 | > 100 | > 100 | > 100 | – | > 100 | > 100 | > 100 | > 100 | > 100 | > 100 | – |
| CC(=O)C(CN(C)C)C(c1ccccc1)c1c(O)c2ccccc2oc1=O (centres undefined) | > 100 | > 100 | – | > 100 | – | > 100 | > 100 | > 100 | > 100 | – | > 100 | > 100 | > 100 | > 100 | > 100 | > 100 | > 100 | > 100 | > 100 | – |
| O=S(=O)(c1ccccc1)n1cc(C[P+](c2ccccc2)(c2ccccc2)c2ccccc2)c2ccccc21 | 24.8 | 28.7 | – | 4.78 | – | 30.5 | 13.6 | 15.3 | 11.3 | – | 13.5 | 22 | 12.6 | 20.3 | 14.2 | 6.77 | 17.1 | 19.8 | 18.8 | – |
| Cc1c(N/C=C(\C#N)C(=O)c2ccc(Cl)cc2)c(=O)n(-c2ccccc2)n1C | > 100 | – | > 100 | > 100 | > 100 | > 100 | > 100 | > 100 | > 100 | > 100 | > 100 | > 100 | > 100 | > 100 | > 100 | > 100 | > 100 | > 100 | > 100 | – |
| CNS(=O)(=O)NN(C)S(=O)(=O)c1ccc2ccccc2c1 | > 100 | > 100 | – | > 100 | – | > 100 | > 100 | – | > 100 | – | – | > 100 | > 100 | > 100 | – | – | > 100 | > 100 | > 100 | – |
| O=C(Nc1cc(Cl)cc(Cl)c1)/C(Cc1nc2ccccc2[nH]c1=O)=N/NC(=O)c1ccncc1 | > 100 | > 100 | – | > 100 | – | > 100 | > 100 | > 100 | – | – | > 100 | > 100 | > 100 | – | – | > 100 | > 100 | – | > 100 | – |
| CC(C)CC(NC(=O)OC(C)(C)C)C(=O)N1CCCC1C(=O)OCc1ccccc1 (stereo not drawn) (Boc-Leu-Pro-OBn; configuration not given here) | > 100 | > 100 | > 100 | > 100 | > 100 | > 100 | > 100 | – | > 100 | > 100 | > 100 | > 100 | > 100 | > 100 | > 100 | > 100 | > 100 | > 100 | – | – |
| COC(=O)c1c[nH]c2c1-c1cc(C(=O)OCc3ccccc3)n(S(=O)(=O)c3ccc(C)cc3)c1C(=O)C2=O | 1.97 | 0.761 | 0.342 | 2.08 | 0.287 | 0.438 | 0.375 | 2.69 | 0.607 | 6.01 | 0.155 | 1.08 | 0.927 | 1.14 | 0.244 | 0.505 | 0.576 | 0.481 | 2.83 | – |
| Cc1ccc(N=NN(C)C(=O)C(C)N)cc1 (centres undefined) | – | > 100 | > 100 | > 100 | > 100 | > 100 | > 100 | > 100 | > 100 | > 100 | > 100 | > 100 | > 100 | > 100 | > 100 | > 100 | > 100 | > 100 | > 100 | – |
| CCCCCCCCCCCCCCCC(=O)OCC1OC(OC)C2NP(=O)(N(CCCl)CCCl)OC1C2O (centres undefined) | 39.9 | 40.6 | 5.96 | 13.5 | 54.8 | 14.2 | 6.58 | 14.5 | 3.42 | – | 10.7 | 38 | 13.5 | 3.99 | 61.1 | 65.6 | 17.4 | 24.8 | 15.9 | – |
| CCCCN[C@H]1C2C3CC4C5CC(C42)C1(C)C53 (some centres undefined) | > 100 | > 100 | – | > 100 | – | > 100 | > 100 | > 100 | > 100 | – | > 100 | > 100 | – | > 100 | > 100 | > 100 | > 100 | > 100 | > 100 | – |
